We go through two compounds from paper PMC2384007 (PLoS ONE, 2008).

One may read the Kd as a measure of binding affinity in units of concentration. A high value points to a looser complex.

Experiment [1] concerns the target T1, Biotin Protein Ligase (MtBPL) (Mycobacterium tuberculosis, UniProt I6YFP0).
T1 construct: gene birA; 266 amino acids, hexahistidine tag at N-terminus
Nature of the experiment: ITC (VP-ITC, […]°C). The class given is binding.

Experiment [2] deals with Mycobacterium tuberculosis Biotin Protein Ligase (Mycobacterium tuberculosis) (UniProt I6YFP0).
Chain of Mycobacterium tuberculosis Biotin Protein Ligase (Mycobacterium tuberculosis) (I6YFP0 whole entry): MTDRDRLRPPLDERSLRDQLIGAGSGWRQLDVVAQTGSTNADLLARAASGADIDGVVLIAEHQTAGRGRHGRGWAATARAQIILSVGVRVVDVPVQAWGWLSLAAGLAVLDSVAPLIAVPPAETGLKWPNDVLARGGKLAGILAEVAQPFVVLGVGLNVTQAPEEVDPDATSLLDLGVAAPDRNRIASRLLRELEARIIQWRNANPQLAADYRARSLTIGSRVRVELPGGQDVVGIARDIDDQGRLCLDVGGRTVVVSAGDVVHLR

T1 sequence (I6YFP0 whole entry, looked up): as the sequence (I6YFP0 whole entry) above

`Nc1ncnc2c1ncn2[C@@H]1O[C@H](COP(=O)(O)OC(=O)CCCC[C@@H]2SC[C@@H]3NC(=O)N[C@@H]32)[C@@H](O)[C@H]1O` [bio-5′-AMP]: the dissociation constant (Kd) in experiment [1] was 1360 nM.
Regarding “biotin carboxyl carrier protein (BCCP) domain of M. tuberculosis acetyl CoA carboxylase (domain or fragment)”, the Km for BCCP in the MtBPL catalysed incorporation of [14C]-biotin into BCCP (steady state kinetics, Michaelis-Menten fit) in experiment [2] was found to be 5.2 µM.
